Key:
Test in all cases: Kinase profiling in a biochemical assay panel (mobility shift assays and ELISA), %-inhibition at 1 μM; selectivity entropy
[1] = target: T1, panel of more than 300 wild-type and mutant kinases (313 kinase panel) (Homo sapiens, UniProt P42680); details: kinase TEC; 1 μM
T1 sequence (P42680 1-631): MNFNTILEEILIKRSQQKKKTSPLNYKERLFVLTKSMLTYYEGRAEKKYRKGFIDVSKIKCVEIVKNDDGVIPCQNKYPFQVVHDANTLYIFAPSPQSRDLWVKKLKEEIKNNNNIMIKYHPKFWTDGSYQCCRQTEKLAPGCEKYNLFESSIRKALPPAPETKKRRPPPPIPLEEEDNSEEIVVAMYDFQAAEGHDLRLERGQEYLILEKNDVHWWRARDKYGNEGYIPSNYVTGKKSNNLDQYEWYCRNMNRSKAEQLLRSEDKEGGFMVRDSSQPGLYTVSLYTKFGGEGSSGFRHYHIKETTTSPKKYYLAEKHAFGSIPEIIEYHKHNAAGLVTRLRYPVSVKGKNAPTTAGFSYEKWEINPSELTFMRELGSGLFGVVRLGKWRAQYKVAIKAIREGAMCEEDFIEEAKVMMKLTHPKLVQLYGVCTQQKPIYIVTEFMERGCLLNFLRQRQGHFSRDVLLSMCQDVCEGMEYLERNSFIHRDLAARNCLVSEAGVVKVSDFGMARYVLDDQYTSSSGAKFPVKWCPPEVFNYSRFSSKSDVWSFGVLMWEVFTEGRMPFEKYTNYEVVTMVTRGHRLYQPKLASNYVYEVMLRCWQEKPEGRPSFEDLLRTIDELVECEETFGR

[2] = target: T2, panel of more than 300 wild-type and mutant kinases (313 kinase panel) (Homo sapiens, UniProt Q92630); details: kinase DYRK2; compound at 1 μM
T2 sequence (Q92630 1-601): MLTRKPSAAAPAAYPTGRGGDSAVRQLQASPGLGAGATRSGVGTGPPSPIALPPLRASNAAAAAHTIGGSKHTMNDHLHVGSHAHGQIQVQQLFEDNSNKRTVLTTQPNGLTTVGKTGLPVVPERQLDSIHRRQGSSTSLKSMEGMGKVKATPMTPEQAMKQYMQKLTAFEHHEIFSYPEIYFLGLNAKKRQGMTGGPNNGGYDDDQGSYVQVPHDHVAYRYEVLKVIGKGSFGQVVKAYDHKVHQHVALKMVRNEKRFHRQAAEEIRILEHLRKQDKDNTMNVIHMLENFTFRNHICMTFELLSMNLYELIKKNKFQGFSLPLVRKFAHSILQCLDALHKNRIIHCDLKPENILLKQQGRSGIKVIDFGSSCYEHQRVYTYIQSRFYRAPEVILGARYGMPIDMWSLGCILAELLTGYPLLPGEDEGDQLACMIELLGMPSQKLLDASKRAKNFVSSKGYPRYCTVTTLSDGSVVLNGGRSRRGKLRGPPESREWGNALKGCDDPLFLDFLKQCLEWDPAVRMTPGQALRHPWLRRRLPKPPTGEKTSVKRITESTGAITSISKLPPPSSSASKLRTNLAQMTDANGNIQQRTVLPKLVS

[3] = target: panel of more than 300 wild-type and mutant kinases (313 kinase panel) (Homo sapiens, UniProt Q15119); details: kinase PDHK2; 1 μM
[4] = target: panel of more than 300 wild-type and mutant kinases (313 kinase panel) (Homo sapiens, UniProt Q14289); details: kinase PYK2; 1 μM
[5] = target: panel of more than 300 wild-type and mutant kinases (313 kinase panel) (Homo sapiens, UniProt P23458); details: kinase JAK1; compound at 1 μM
[6] = target: panel of more than 300 wild-type and mutant kinases (313 kinase panel) (Homo sapiens, UniProt P08922); details: kinase ROS; 1 μM
[7] = target: panel of more than 300 wild-type and mutant kinases (313 kinase panel) (Homo sapiens, UniProt P10721, D816V); details: kinase KIT(D816V); compound at 1 μM
[8] = target: panel of more than 300 wild-type and mutant kinases (313 kinase panel) (Homo sapiens, UniProt Q00535); details: kinase CDK5/p25; 1 μM compound
[9] = target: panel of more than 300 wild-type and mutant kinases (313 kinase panel) (Homo sapiens, UniProt O96017); details: kinase CHK2; 1 μM compound

Row | Compound | %-inhibition of TEC [1] | %-inhibition of DYRK2 [2] | %-inhibition of PDHK2 [3] | %-inhibition of PYK2 [4] | %-inhibition of JAK1 [5] | %-inhibition of ROS [6] | %-inhibition of KIT(D816V) [7] | %-inhibition, CDK5/p25 [8] | %-inhibition, CHK2 [9]
1 | Cc1ccc(Nc2nccc(N(C)c3ccc4c(C)n(C)nc4c3)n2)cc1S(N)(=O)=O [pazopanib] | 48% | -1% | -4.23% | 39% | 9% | 94% | 87% | 9% | 5.7%
2 | CNC(=O)c1cc(Oc2ccc(NC(=O)Nc3ccc(Cl)c(C(F)(F)F)c3)c(F)c2)ccn1 [regorafenib] | -8% | 2% | 7% | -0.496% | 31% | 5% | 40% | -19% | -2.11%
3 | CO[C@H]1C[C@@H]2CC[C@@H](C)[C@@](O)(O2)C(=O)C(=O)N2CCCC[C@H]2C(=O)O[C@H]([C@H](C)C[C@@H]2CC[C@@H](OC(=O)C(C)(CO)CO)[C@H](OC)C2)CC(=O)[C@H](C)/C=C(\C)[C@@H](O)[C@@H](OC)C(=O)[C@H](C)C[C@H](C)/C=C/C=C/C=C/1C [temsirolimus] | -9% | -3.63% | -2.2% | -3% | -7% | -2% | -2.12% | -22% | -3.45%
4 | CC(=O)Nc1cccc(-n2c(=O)n(C3CC3)c(=O)c3c(Nc4ccc(I)cc4F)n(C)c(=O)c(C)c32)c1 [trametinib] | -7.53% | -0.0865% | -0.542% | 2.72% | -1.83% | -0.611% | -4% | 19% | -5%
5 | CCCS(=O)(=O)Nc1ccc(F)c(C(=O)c2c[nH]c3ncc(-c4ccc(Cl)cc4)cc23)c1F [vemurafenib] | -0.191% | 1% | 3.73% | 0.921% | 46% | 2% | 17% | 5% | 6.32%
